For test [1], the target named is wild-type Epidermal Growth Factor Receptor (EGFR) (Homo sapiens (Human), UniProt P00533). The experiment in a line: WT-EGFR Kinase Assay (TR-FRET, 2 mM ATP). The test is classed as biochemical. In a few lines: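 GST-fused human EGFR fragment (R669-A1210) from Sf9 cells, typically 7.6 pg/μL, pre-incubated with compound 15 min at 22° C in Hepes pH 7.0 buffer with MgCl2, DTT and vanadate; biotinylated peptide substrate. After EDTA stop, phosphopeptide detected by TR-FRET (anti-phosphotyrosine Tb-cryptate/streptavidin-XL665), 665/620 nm emission ratio.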

For test [2], the target named is CSNK1A1 (Homo sapiens (Human), UniProt P48729). The experiment in a line: CSNK1A1 High ATP Assay (ADP-Glo, 1 mM ATP). Type of test: biochemical. The following applies: median, read-out: CSNK1A1 high ATP assay IC50 [mol/l] (median). In a few lines:
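GST-tagged full-length human CSNK1A1 from baculovirus-infected insect cells (typically about 0.4 ng/μL), pre-incubated with compound 15 min at 22 °C. Reaction with biotinylated peptide biotin-Ahx-KRRRAL-pS-VASLPGL at 1 mM ATP. ADP formed read by ADP-Glo luminescence.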
(In ADP-Glo the light output rises with the ADP produced.)

Setting [3] is: read-out: EGFR Wildtype 2 mM ATP IC50 [mol/l] (median).

Like-named read-outs stand apart in the source and are kept apart here. A value given as a limit tells only on which side of the number the result lay.

Sequence of wild-type Epidermal Growth Factor Receptor (EGFR) (P00533 669-1210): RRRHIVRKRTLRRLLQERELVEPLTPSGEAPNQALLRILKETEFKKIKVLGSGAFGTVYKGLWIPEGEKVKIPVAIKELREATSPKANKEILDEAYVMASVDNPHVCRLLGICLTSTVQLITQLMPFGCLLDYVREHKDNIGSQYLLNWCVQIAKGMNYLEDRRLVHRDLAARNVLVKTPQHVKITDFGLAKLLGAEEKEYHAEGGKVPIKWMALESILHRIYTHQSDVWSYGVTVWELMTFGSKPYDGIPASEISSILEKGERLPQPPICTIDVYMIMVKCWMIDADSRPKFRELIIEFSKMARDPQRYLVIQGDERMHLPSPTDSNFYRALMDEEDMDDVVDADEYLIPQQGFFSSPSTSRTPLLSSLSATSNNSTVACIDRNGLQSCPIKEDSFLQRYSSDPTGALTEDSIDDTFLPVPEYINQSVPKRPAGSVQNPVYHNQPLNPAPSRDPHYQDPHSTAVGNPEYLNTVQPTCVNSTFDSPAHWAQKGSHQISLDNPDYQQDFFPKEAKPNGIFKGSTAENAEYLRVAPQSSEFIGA
Sequence of CSNK1A1 (P48729 whole entry): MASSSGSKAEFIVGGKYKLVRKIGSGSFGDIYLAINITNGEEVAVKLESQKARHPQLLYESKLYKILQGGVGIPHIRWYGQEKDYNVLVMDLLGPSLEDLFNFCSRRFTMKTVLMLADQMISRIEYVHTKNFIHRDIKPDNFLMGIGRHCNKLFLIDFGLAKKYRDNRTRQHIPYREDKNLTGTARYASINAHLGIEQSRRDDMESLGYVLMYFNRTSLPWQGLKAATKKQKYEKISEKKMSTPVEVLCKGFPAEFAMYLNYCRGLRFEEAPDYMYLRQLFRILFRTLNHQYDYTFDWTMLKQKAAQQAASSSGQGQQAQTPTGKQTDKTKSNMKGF

For the compound `O=C(Cc1ccc(F)cc1)Nc1cc(-c2[nH]c3cc(F)cnc3c2-c2ccccn2)ccn1` [Example 9, 2-(4-fluorophenyl)-N-{4-[6-fluoro-3-(pyridin-2-yl)-1H-pyrrolo[3,2-b]pyridin-2-yl]pyridin-2-yl}acetamide], the figures for the IC50 in test [1] (setting [3]) and in test [2] were over 20000 nM and 33.6 nM, respectively.

For the compound `O=C(Cc1ccc(F)cc1)Nc1cc(-c2[nH]c3cc(F)cnc3c2-c2ccccc2)ccn1` [Example 10, 2-(4-fluorophenyl)-N-[4-(6-fluoro-3-phenyl-1H-pyrrolo[3,2-b]pyridin-2-yl)pyridin-2-yl]acetamide], the IC50 is over 20000 nM in test [1] (setting [3]) and 302 nM in test [2].

As for `O=C(Cc1ccc(F)cc1)Nc1cc(-c2[nH]c3cccnc3c2-c2ccccc2)ccn1` [Example 14, 2-(4-fluorophenyl)-N-[4-(3-phenyl-1H-pyrrolo[3,2-b]pyridin-2-yl)pyridin-2-yl]acetamide], the figures for the IC50 in test [1] (median), in test [1] (setting [3]) and in test [2] were over 20000 nM, 19100 nM and 45.5 nM, respectively.

Turning to `O=C(Cc1ccc(F)cc1)Nc1cc(-c2[nH]c3cccnc3c2-c2cccc(F)c2)ccn1` [Example 15, 2-(4-fluorophenyl)-N-{4-[3-(3-fluorophenyl)-1H-pyrrolo[3,2-b]pyridin-2-yl]pyridin-2-yl}acetamide], the figures for the IC50 in test [1] (setting [3]) and in test [2] were over 20000 nM and 87.7 nM, respectively.

For the compound `O=C(Cc1ccc(F)cc1)Nc1cc(-c2[nH]c3cccnc3c2-c2ncccn2)ccn1` [Example 16, 2-(4-fluorophenyl)-N-{4-[3-(pyrimidin-2-yl)-1H-pyrrolo[3,2-b]pyridin-2-yl]pyridin-2-yl}acetamide], the IC50 is 17500 nM in test [1] (median), over 20000 nM in test [1] (setting [3]) and 97.9 nM in test [2].

With `O=C(Cc1ccc(F)cc1)Nc1cc(-c2[nH]c3cccnc3c2-c2ccc(Cl)s2)ccn1` [Example 17, N-{4-[3-(5-chlorothiophen-2-yl)-1H-pyrrolo[3,2-b]pyridin-2-yl]pyridin-2-yl}-2-(4-fluorophenyl)acetamide], the IC50 was over 20000 nM in test [1] (setting [3]) and 87.3 nM in test [2].

As to `O=C(Cc1ccc(F)cc1)Nc1cc(-c2[nH]c3ccnnc3c2-c2ccccn2)ccn1` [Example 21, 2-(4-fluorophenyl)-N-{4-[7-(pyridin-2-yl)-5H-pyrrolo[3,2-c]pyridazin-6-yl]pyridin-2-yl}acetamide], the IC50 in test [1] (setting [3]) is over 20000 nM; in test [2], 25.1 nM.

As for `O=C(Cc1ccc(F)cc1)Nc1cc(-c2[nH]c3c(Cl)ccnc3c2-c2ccccn2)ccn1` [Example 22, N-{4-[7-chloro-3-(pyridin-2-yl)-1H-pyrrolo[3,2-b]pyridin-2-yl]pyridin-2-yl}-2-(4-fluorophenyl)acetamide], the IC50 was over 20000 nM in test [1] (setting [3]) and 21.8 nM in test [2].

Consider `O=C(Cc1ccc(F)cc1)Nc1cc(-c2[nH]c3ccc(Cl)nc3c2-c2ccccn2)ccn1` [Example 23, N-{4-[5-chloro-3-(pyridin-2-yl)-1H-pyrrolo[3,2-b]pyridin-2-yl]pyridin-2-yl}-2-(4-fluorophenyl)acetamide], for which the IC50 was over 20000 nM in test [1] (setting [3]) and 40.9 nM in test [2].

As for `Cc1cc2[nH]c(-c3ccnc(NC(=O)Cc4ccc(F)cc4)c3)c(-c3ccccn3)c2nc1F` [Example 27, N-{4-[5-fluoro-6-methyl-3-(pyridin-2-yl)-1H-pyrrolo[3,2-b]pyridin-2-yl]pyridin-2-yl}-2-(4-fluorophenyl)acetamide], the values for the IC50 in test [1] (setting [3]) and in test [2] were over 20000 nM and 11.2 nM, respectively.

On to `COc1ccnc2c(-c3ccccn3)c(-c3ccnc(NC(=O)Cc4ccc(F)cc4)c3)[nH]c12` [Example 31, 2-(4-fluorophenyl)-N-{4-[7-methoxy-3-(pyridin-2-yl)-1H-pyrrolo[3,2-b]pyridin-2-yl]pyridin-2-yl}acetamide], for which the results for the IC50 in test [1] (setting [3]) and in test [2] were over 20000 nM and 5.63 nM, respectively.

As to `COc1ccc2[nH]c(-c3ccnc(NC(=O)Cc4ccc(F)cc4)c3)c(-c3ccccn3)c2n1` [Example 32, 2-(4-fluorophenyl)-N-{4-[5-methoxy-3-(pyridin-2-yl)-1H-pyrrolo[3,2-b]pyridin-2-yl]pyridin-2-yl}acetamide], the IC50 in test [1] (setting [3]) is over 20000 nM; in test [2], 23.3 nM.

Turning to `C=Cc1ccnc2c(-c3ccccn3)c(-c3ccnc(NC(=O)Cc4ccc(F)cc4)c3)[nH]c12` [Example 33, N-{4-[7-ethenyl-3-(pyridin-2-yl)-1H-pyrrolo[3,2-b]pyridin-2-yl]pyridin-2-yl}-2-(4-fluorophenyl)acetamide], the IC50 in test [1] (setting [3]) came out at 15100 nM; in test [2] it was 29 nM.

In the case of `CCc1ccnc2c(-c3ccccn3)c(-c3ccnc(NC(=O)Cc4ccc(F)cc4)c3)[nH]c12` [Example 34, N-{4-[7-ethyl-3-(pyridin-2-yl)-1H-pyrrolo[3,2-b]pyridin-2-yl]pyridin-2-yl}-2-(4-fluorophenyl)acetamide], the results for the IC50 in test [1] (setting [3]) and in test [2] were over 20000 nM and 13.5 nM, respectively.

On to `O=C(Cc1ccc(F)cc1)Nc1cc(-c2[nH]c3c(C4CC4)ccnc3c2-c2ccccn2)ccn1` [Example 35, N-{4-[7-cyclopropyl-3-(pyridin-2-yl)-1H-pyrrolo[3,2-b]pyridin-2-yl]pyridin-2-yl}-2-(4-fluorophenyl)acetamide], for which the IC50 in test [1] (setting [3]) is over 20000 nM; in test [2] it was 6.39 nM.

For `COCCc1ccnc2c(-c3ccccn3)c(-c3ccnc(NC(=O)Cc4ccc(F)cc4)c3)[nH]c12` [Example 36, 2-(4-fluorophenyl)-N-{4-[7-(2-methoxyethyl)-3-(pyridin-2-yl)-1H-pyrrolo[3,2-b]pyridin-2-yl]pyridin-2-yl}acetamide], the IC50 in test [1] (setting [3]) is over 20000 nM; in test [2] it was 31.8 nM.

For `CN1CCN(c2ccnc3c(-c4ccccn4)c(-c4ccnc(NC(=O)Cc5ccc(F)cc5)c4)[nH]c23)CC1` [Example 38, 2-(4-fluorophenyl)-N-{4-[7-(4-methylpiperazin-1-yl)-3-(pyridin-2-yl)-1H-pyrrolo[3,2-b]pyridin-2-yl]pyridin-2-yl}acetamide], the figures for the IC50 in test [1] (setting [3]) and in test [2] were over 20000 nM and 19.8 nM, respectively.

Take `CN1CCC(N(C)c2ccnc3c(-c4ccccn4)c(-c4ccnc(NC(=O)Cc5ccc(F)cc5)c4)[nH]c23)CC1` [Example 39, 2-(4-fluorophenyl)-N-(4-{7-[methyl(1-methylpiperidin-4-yl)amino]-3-(pyridin-2-yl)-1H-pyrrolo[3,2-b]pyridin-2-yl}pyridin-2-yl)acetamide]: the IC50 in test [1] (setting [3]) stood at 1090 nM; in test [2], 32.9 nM.

Take `O=C(Cc1ccc(F)cc1)Nc1cc(-c2[nH]c3c(N4CCCC4=O)ccnc3c2-c2ccccn2)ccn1` [Example 40, 2-(4-fluorophenyl)-N-{4-[7-(2-oxopyrrolidin-1-yl)-3-(pyridin-2-yl)-1H-pyrrolo[3,2-b]pyridin-2-yl]pyridin-2-yl}acetamide]: the figures for the IC50 in test [1] (setting [3]) and in test [2] were over 20000 nM and 30.1 nM, respectively.

In the case of `Cc1cc(CC(=O)Nc2cc(-c3[nH]c4cccnc4c3-c3ccccn3)ccn2)ccc1F` [Example 41, 2-(4-fluoro-3-methylphenyl)-N-{4-[3-(pyridin-2-yl)-1H-pyrrolo[3,2-b]pyridin-2-yl]pyridin-2-yl}acetamide], the IC50 is over 20000 nM in test [1] (setting [3]) and 19 nM in test [2].

On to `O=C(Cc1ccc(Cl)cc1)Nc1cc(-c2[nH]c3cccnc3c2-c2ccccn2)ccn1` [Example 42, 2-(4-chlorophenyl)-N-{4-[3-(pyridin-2-yl)-1H-pyrrolo[3,2-b]pyridin-2-yl]pyridin-2-yl}acetamide], for which the figures for the IC50 in test [1] (setting [3]) and in test [2] were over 20000 nM and 7.14 nM, respectively.

With `O=C(Cc1ccccc1)Nc1cc(-c2[nH]c3cccnc3c2-c2ccccn2)ccn1` [Example 46, 2-phenyl-N-(4-(3-(pyridin-2-yl)-1H-pyrrolo[3,2-b]pyridin-2-yl)pyridin-2-yl)acetamide], the values for the IC50 in test [1] (setting [3]) and in test [2] were over 20000 nM and 14.6 nM, respectively.

With `O=C(Cc1ccc(F)cc1)Nc1cc(-c2[nH]c3cccnc3c2-c2ncccn2)ccn1` [Example 51, 2-(4-fluorophenyl)-N-{4-[3-(pyrimidin-2-yl)-1H-pyrrolo[3,2-b]pyridin-2-yl]pyridin-2-yl}acetamide], the IC50 in test [1] (setting [3]) is over 20000 nM; in test [2], 180 nM.

In the case of `CC(C(=O)Nc1cc(-c2[nH]c3cc(Cl)cnc3c2-c2ccccn2)ccn1)c1ccc(F)cc1` (centres unmarked) [Example 52, N-{4-[6-chloro-3-(pyridin-2-yl)-1H-pyrrolo[3,2-b]pyridin-2-yl]pyridin-2-yl}-2-(4-fluorophenyl)propanamide], the IC50 in test [1] (setting [3]) was over 20000 nM; in test [2], 382 nM.

Source of the values: patent US20230339939A1 (Bayer Aktiengesellschaft, priority 2020, published 2023).
